Test results taken from PubChem BioAssay (NCI).
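Following 48 hours of exposure in 96-well plates, responses at five concentrations were used to interpolate endpoints linearly. TGI: concentration producing complete growth inhibition.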

Columns and labels:
Experiment in all cases: DTP human tumour cell line panel, 48 h
[1] = tested on: A498 renal
[2] = tested on: CAKI-1 renal
[3] = tested on: EKVX NSCLC
[4] = tested on: HOP-62 NSCLC
[5] = tested on: IGROV1 ovarian
[6] = tested on: M14 melanoma
[7] = tested on: MALME-3M melanoma
[8] = tested on: OVCAR-4 ovarian
[9] = tested on: UACC-257 melanoma
[10] = tested on: UACC-62 melanoma

Structure (SMILES)	TGI [1] [µM]	TGI [2] [µM]	TGI [3] [µM]	TGI [4] [µM]	TGI [5] [µM]	TGI [6] [µM]	TGI [7] [µM]	TGI [8] [µM]	TGI [9] [µM]	TGI [10] [µM]
Cc1ccc(S(=O)(=O)NC(CCC(=O)NNc2ccccc2)C(=O)NNc2ccccc2)cc1 (stereo not given)	> 100	> 100	> 100	> 100	> 100	78.8	> 100	99.2	> 100	> 100
NC(Cc1ccc(OCc2ccccc2)cc1)C(=O)NC(Cc1ccccc1)C(=O)Oc1c(Cl)c(Cl)c(Cl)c(Cl)c1Cl (stereo not given)	37.9	30.7	41.6	30.5	31.4	28.5	35.3	35.5	32.8	32.7
COc1cc(/C=C2\CC/C(=C\c3cc(OC)c(O)c(OC)c3)C2=O)cc(OC)c1O	2.86	7.32	16.5	> 100	3.19	> 23.6	1.74	6.05	> 100	3.8
O=C1NC(=O)c2ccccc2/C1=C/c1ccc2c(c1)OCO2	> 100	98.4	> 100	28.7	60.9	76.5	> 100	> 100	55.3	54.3
CSC(=S)Nc1cc(C)cc(C)n1	> 100	> 31.6	> 31.6	> 100	> 100	> 31.6	> 31.6	> 31.6	> 31.6	> 31.6
COc1cc2cc(C(=O)N3CC(COS(C)(=O)=O)c4ccc(NC(=O)OCc5ccccc5)cc43)[nH]c2c(OC)c1OC (stereo not given)	> 100	> 100	> 100	> 100	> 100	> 100	> 100	> 100	> 100	> 100
COc1ccccc1OCC(COC(=O)Nc1ccccc1)OC(=O)Nc1ccccc1 (stereo not given)	> 100	> 100	> 100	> 100	> 100	> 100	> 100	> 100	> 100	> 100
CC(C(=O)OCc1ccccc1)N(Cc1ccccc1)Cc1ccccc1 (stereo not given)	> 100	> 100	> 100	> 100	> 100	> 100	> 100	> 100	> 100	> 100
Nc1ccc(-c2nc3ccccc3s2)cc1Cl	4.17	> 100	> 100	72.8	> 100	> 100	> 100	> 100	> 100	> 100
O[C@@H]1C=C[C@]23CCN(Cc4cc5c(cc42)OCO5)[C@@H]3C1	> 100	> 100	> 100	> 100	> 100	> 100	> 100	> 100	> 100	> 100
CC1CC[C@@]2(OC1)O[C@H]1[C@H](O)[C@H]3[C@@H]4CC[C@H]5C[C@@H](OC6OC(CO)C(OC7OC(CO)C(O)C(OC8OCC(O)C(O)C8O)C7OC7OC(CO)C(O)C(O)C7OC7OC(CO)C(O)C(O)C7O)C(O)C6O)[C@H](O)C[C@]5(C)[C@H]4CC[C@]3(C)[C@H]1[C@@H]2C (stereo not given in full)	> 10	> 10	> 10	> 10	> 10	> 10	> 10	> 10	> 10	> 10
COc1cc2ccc(C(=O)NCCCNC(=O)c3ccc4cc(OC)c(OC)cc4c3)cc2cc1OC	> 100	> 100	> 100	> 100	> 100	> 100	> 100	> 100	> 100	> 100
COc1ccc(C#Cn2nnc3ccccc32)cc1	> 100	> 100	> 100	> 100	> 100	> 100	> 100	> 100	> 100	> 100
CSC(SC)=C(C#N)C(=O)Nc1cccc(Cl)c1	> 100	> 100	> 100	> 100	> 100	> 100	> 100	> 100	> 100	> 100
C#CC(O)(c1nc2ccccc2s1)c1nc2ccccc2s1	35.2	> 100	57.5	85.1	31.6	32.8	> 100	> 100	88.5	26.1
CC(C)(C)OC(=O)[C@@H]1CCC(=O)N1C1(c2ccccc2)c2ccccc2-c2ccccc21	> 100	> 100	> 100	> 100	> 100	> 100	> 100	> 100	> 100	> 100
Cc1cc(S(=O)(=O)Nc2nc3ncccc3[nH]2)c(S)cc1Cl	> 100	> 100	> 100	> 100	> 100	> 100	> 100	> 100	> 100	> 100
Clc1sc(Cl)c2c1[C@@H](Cl)C[C@@H]2Cl	> 100	> 100	> 100	> 100	> 100	> 100	> 100	> 100	> 100	> 100
NNC(=O)Nc1nc2ccc(NN)cc2[nH]1	77.3	> 100	> 100	> 100	> 100	84.4	> 100	> 100	88.1	56.4
Cn1cnc(N)c(N=O)c1=O	> 10	> 10	> 10	> 10	> 10	> 10	> 10	> 10	> 10	> 10
